This note sets out measurements from the supplement of paper PMC5579334.

± gives the standard deviation of the averaged measurements.

For experiment [1], the system named is YST-1. Nature of the experiment: drug sensitivity score (DSS, CellTiter-Glo viability, 72 h) (DSS (dimensionless)); higher = more sensitive; extreme values may be limits of the assay. The gist of the method:
(§1)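 MPNST cell lines and primary human Schwann cells (750–1000 cells per well) went into 384-well plates preprinted with each compound at five concentrations in 10-fold steps. Plates were incubated 72 h at 37 °C, 5% CO2. Viability was read as CellTiter-Glo ATP luminescence, scaled between vehicle and positive-control wells, with duplicates averaged where present. Percent inhibition is at the top concentration; drug sensitivity score and relative IC50 (censored at top concentration) come from four-parameter logistic fits.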
(In general: Cellular ATP, detected with luciferase, serves as a proxy for viable cell number.)

Experiment [2] concerns HSC2 (primary human Schwann cells). The experiment is described as above. The gist of the method: as §1
Experiment [3] concerns S1507-2. The description is as above. In outline:
as §1

Experiment [4] concerns S462. Described as above. In outline:
as §1

The test system of experiment [5] is STS26T. The experiment is described as above. The gist of the method:
as §1

The test system of experiment [6] is ST8814. The description is as above. In outline: as §1
The test system of experiment [7] is HS-Sch-2. Described as above. In outline:
as §1

For experiment [8], the system named is HS-PSS. The description is as above. In outline:
as §1

For experiment [9], the system named is HSC1 (primary human Schwann cells). The experiment is described as above. In outline: as §1
The subject of experiment [10] is YST-1. As to the kind of experiment: % inhibition of CellTiter-Glo viability at highest tested concentration (72 h), relative to DMSO and benzethonium chloride controls; higher = more inhibition. The gist of the method: as §1
Experiment [11] has as its system HSC2 (primary human Schwann cells). The experiment is described as above. The gist of the method: as §1
The subject of experiment [12] is S1507-2. Described as above. In outline:
as §1

The subject of experiment [13] is S462. The description is as above. In outline: as §1
The test system of experiment [14] is STS26T. The experiment is described as above. In outline:
as §1

Experiment [15] deals with ST8814. The experiment is described as above. The gist of the method: as §1
Experiment [16] relates to HS-Sch-2. The description is as above. In outline:
as §1

Experiment [17] has as its system HS-PSS. The description is as above. The gist of the method: as §1
The test system of experiment [18] is HSC1 (primary human Schwann cells). The experiment is described as above. The gist of the method: as §1
Experiment [19] relates to HSC2 (primary human Schwann cells). As to the kind of experiment: drug sensitivity score (DSS, CellTox-Green cytotoxicity, 72 h) (DSS (dimensionless)); higher = more cytotoxic; extreme values may be limits of the assay. In outline:
(§2)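 MPNST cell lines and primary human Schwann cells were incubated 72 h at 37 °C in 384-well plates holding five 10-fold compound dilutions. CellTox-Green was added before seeding at a final 1:1000 dilution and reported fluorescence from DNA released by disrupted cells. Signals were scaled to vehicle and positive-control wells, and cultures failing plate quality control were dropped. Drug sensitivity score and relative IC50 come from four-parameter logistic fits, with IC50 censored at the top concentration.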

In experiment [20] the test system is S1507-2. The experiment is described as above. The gist of the method: as §2
The subject of experiment [21] is STS26T. The description is as above. The gist of the method:
as §2

The test system of experiment [22] is ST8814. The experiment is described as above. In outline:
as §2

In experiment [23] the test system is HS-PSS. The experiment is described as above. In outline:
as §2

The test system of experiment [24] is HSC1 (primary human Schwann cells). The experiment is described as above. In outline: as §2

With `Cc1nc(C(=O)NCC(=O)O)c(O)c2ccc(Oc3ccccc3)cc12` [FG-4592] (max concentration tested 10000 nM), the drug sensitivity score in the experiment with YST-1 [1] stood at 0; in experiment [2], 0.0248; in the experiment with S1507-2 [3] it was 0; with S462 [4], 0; with STS26T [5] it was 0; with ST8814 [6] it was 0. The drug sensitivity score worked out at 5.13 in the experiment on HS-Sch-2 [7]; 5.17 in the experiment on HS-PSS [8]; 0.0901 in experiment [9]; 0 in experiment [19]; 0 in the experiment with S1507-2 [20]; 0 in the experiment with STS26T [21]. Moreover, the drug sensitivity score (with ST8814 [22]; with HS-PSS [23]; in [24]) was 0 in each case. Further, the “% inhibition” value with YST-1 [10] was -7.68%; in [11], 12.3%; with S1507-2 [12], -0.77 ± 1.2%; in the experiment with S462 [13] it was -7 ± 5.2%; in the experiment with STS26T [14], 0.0946%; in the experiment with ST8814 [15] it was 7.03%. Also, the results for the “% inhibition” value (with HS-Sch-2 [16]; in the experiment with HS-PSS [17]; in experiment [18]) were 74.7%, 49% and 13.3%, respectively.

Take `O=S(=O)(c1cccc2cnccc12)N1CCCNCC1` [Fasudil] (max concentration tested 50000 nM): the drug sensitivity score with YST-1 [1] turned out to be 2.59; in experiment [2], 1.36; in the experiment on S1507-2 [3], 1.02 ± 0.16; with S462 [4], 3.84 ± 0.63; in the experiment on STS26T [5], 2.86; with ST8814 [6] it was 0.609. Besides, the drug sensitivity score amounted to 3.75 in the experiment with HS-Sch-2 [7]; 1.83 in the experiment on HS-PSS [8]; 1.41 in [9]; 0 in experiment [19]; 0 with S1507-2 [20]; 0.899 with STS26T [21]. Also, the drug sensitivity score with ST8814 [22] turned out to be 0; with HS-PSS [23] it was 0.2; in [24], 0.888. The “% inhibition” value with YST-1 [10] came to 51%; in [11], 31.8%; with S1507-2 [12], 30.5 ± 1.5%; in the experiment on S462 [13] it was 70.6 ± 9.4%; with STS26T [14], 58.9%; in the experiment on ST8814 [15] it was 22.3%. For the same molecule, the results for the “% inhibition” value (in the experiment with HS-Sch-2 [16]; in the experiment on HS-PSS [17]; in experiment [18]) were 71.5%, 45.6% and 27.6%, respectively.

In the case of `CC(C)(C)NC(=O)[C@H]1CC[C@H]2[C@@H]3CC[C@H]4NC(=O)C=C[C@]4(C)[C@H]3CC[C@]12C` [Finasteride] (max concentration tested 10000 nM), the drug sensitivity score (in the experiment on YST-1 [1]; in [2]; in the experiment with S1507-2 [3]; in the experiment with S462 [4]; in the experiment with STS26T [5]; with ST8814 [6]) was 0 in each case. Also, the drug sensitivity score came out at 0 in the experiment with HS-Sch-2 [7]; 0 with HS-PSS [8]; 0 in experiment [9]; 0 in experiment [19]; 0.774 ± 1.1 in the experiment on S1507-2 [20]; 0 in the experiment on STS26T [21]. Besides, the drug sensitivity score (with ST8814 [22]; in the experiment on HS-PSS [23]; in experiment [24]) was 0 in each case. Also, the “% inhibition” value with YST-1 [10] was 2.29%; in [11] it was 0.769%; with S1507-2 [12] it was -1.69 ± 4.2%; in the experiment on S462 [13] it was 2.86 ± 8.6%; in the experiment on STS26T [14] it was 9.35%; in the experiment on ST8814 [15] it was 6.23%. For the same molecule, the “% inhibition” value is 8.19% with HS-Sch-2 [16], 4.42% with HS-PSS [17] and 0.189% in [18].

As for `CCCCCCCCc1ccc(CCC(N)(CO)CO)cc1` [Fingolimod] (max concentration tested 10000 nM), the drug sensitivity score with YST-1 [1] was 5.97; in [2], 7.17; in the experiment with S1507-2 [3], 7.98 ± 1; in the experiment on S462 [4], 5.79 ± 0.46; in the experiment with STS26T [5] it was 6.58; in the experiment with ST8814 [6], 6.27. Besides, the drug sensitivity score came to 6.87 in the experiment with HS-Sch-2 [7]; 8.31 in the experiment on HS-PSS [8]; 7.62 in experiment [9]; 7.44 in experiment [19]; 13.3 ± 9.3 with S1507-2 [20]; 4.94 with STS26T [21]. The drug sensitivity score amounted to 5.09 in the experiment with ST8814 [22], 5.38 in the experiment with HS-PSS [23] and 8.13 in [24]. Moreover, the “% inhibition” value with YST-1 [10] came out at 101%; in experiment [11], 101%; with S1507-2 [12], 103 ± 2.5%; with S462 [13], 101.6 ± 0.59%; in the experiment on STS26T [14], 102%; in the experiment with ST8814 [15], 103%. Also, the results for the “% inhibition” value (in the experiment on HS-Sch-2 [16]; in the experiment with HS-PSS [17]; in [18]) were 101%, 101% and 103%, respectively.

The term % inhibition denotes the relative decrease from the control value, in per cent.
